Converted amounts (≈) assume the structure as drawn.
Legend:
[1] = test system: P. aeruginosa (ΔmexAB-oprM); test: Broth microdilution MIC in CAMHB; type: cell-based; conditions: Pseudomonas aeruginosa, read-out: Minimum Inhibitory Concentration, P. aeruginosa ΔmexAB-OprM
Procedure, shortened: (§1)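 MIC, read by eye, is the lowest compound concentration giving no bacterial growth after 16-20 h at 37° C. Test compounds are serially diluted 2-fold in CAMHB and seeded with 2-8×10^5 CFU/mL of bacteria taken from a 3-5 h shaking culture, following CLSI methods.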

[2] = test system: K. pneumoniae UMM producing SHV-5 and KPC-2; test: Broth microdilution MIC in CAMHB; type: cell-based; conditions: Klebsiella pneumoniae, read-out: Minimum Inhibitory Concentration, K. pneumoniae UMM
Procedure, shortened: as §1

E. coli AG100A = test: Broth microdilution MIC in CAMHB; type: cell-based; conditions: Escherichia coli, read-out: Minimum Inhibitory Concentration, E. coli AG100A
Procedure, shortened: as §1

A. baumannii ATCC 19606 = test: Broth microdilution MIC in CAMHB; type: cell-based; conditions: Acinetobacter baumannii, ATCC19606; MHB; read-out: Minimum Inhibitory Concentration, A. baumannii ATCC 19606
Procedure, shortened: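 Hyper-permeable or efflux-deficient strains serve to probe outer-membrane penetration. Growth inhibition is scored visually after 16-20 h at 37° C in CAMHB, starting from 2-8×10^5 CFU/mL.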

[3] = test system: K. pneumoniae SI-117 producing VIM-1; test: Broth microdilution MIC in CAMHB; type: cell-based; conditions: Klebsiella pneumoniae, read-out: Minimum Inhibitory Concentration, K. pneumoniae SI-117
Procedure, shortened: as §1

E. coli AG100 = test: Broth microdilution MIC in CAMHB; type: cell-based; conditions: Escherichia coli; E. coli AG100 (wild-type parent); MHB; read-out: Minimum Inhibitory Concentration, E. coli AG100
Procedure, shortened: as §1

E. coli ATCC 25922 = test: Broth microdilution MIC in CAMHB; type: cell-based; conditions: Escherichia coli, ATCC25922; E. coli ATCC 25922; MHB; read-out: Minimum Inhibitory Concentration, E. coli 25922
Procedure, shortened: as §1

P. aeruginosa ATCC 27853 = test: Broth microdilution MIC in CAMHB; type: cell-based; conditions: Pseudomonas aeruginosa, ATCC27853; MHB; read-out: Minimum Inhibitory Concentration, P. aeruginosa ATCC 27853
Procedure, shortened: as §1

E. coli K12 PBP3 = biological target: T1, E. coli K12 PBP3 (Escherichia coli, UniProt P0AD68); test: biochemical; type: binding
T1 construct: made in house
T1 sequence (P0AD68 1-577): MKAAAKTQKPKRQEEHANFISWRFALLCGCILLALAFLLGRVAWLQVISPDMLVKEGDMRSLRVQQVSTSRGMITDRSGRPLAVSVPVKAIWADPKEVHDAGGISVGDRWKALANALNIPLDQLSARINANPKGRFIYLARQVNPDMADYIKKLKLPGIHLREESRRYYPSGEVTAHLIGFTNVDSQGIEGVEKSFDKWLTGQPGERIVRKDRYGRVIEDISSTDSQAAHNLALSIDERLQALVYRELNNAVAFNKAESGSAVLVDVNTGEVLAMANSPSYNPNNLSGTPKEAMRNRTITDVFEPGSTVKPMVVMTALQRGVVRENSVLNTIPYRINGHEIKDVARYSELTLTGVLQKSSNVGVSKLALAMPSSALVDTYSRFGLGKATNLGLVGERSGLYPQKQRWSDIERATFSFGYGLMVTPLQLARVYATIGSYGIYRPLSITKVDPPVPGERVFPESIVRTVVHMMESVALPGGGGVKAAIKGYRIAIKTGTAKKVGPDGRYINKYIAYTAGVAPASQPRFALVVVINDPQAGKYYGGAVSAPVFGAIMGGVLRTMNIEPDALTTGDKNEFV
Procedure, shortened: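 Fluorescence polarization (ex 490/em 520 nm) competition of inhibitors against Bocillin-FL at 0.1 μM, read up to 60 min. Final PBP levels: E. coli PBP3 1.5 μM; A. baumannii PBP2 2.5 μM, PBP3 0.2 μM in Tris pH 8.0/NaCl/glycerol/Tween 20; N. gonorrhoeae PBP2 […] in Hepes pH 8.0/NaCl/glycerol. EC50 = concentration halving PBP-bound Bocillin-FL.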

Structure (SMILES) | MIC [1] [µg/mL] | MIC [2] [µg/mL] | MIC (E. coli AG100A) [µg/mL] | MIC (A. baumannii ATCC 19606) [µg/mL] | MIC [3] [µg/mL] | MIC (E. coli AG100) [µg/mL] | MIC (E. coli ATCC 25922) [µg/mL] | MIC (P. aeruginosa ATCC 27853) [µg/mL] | EC50 (E. coli K12 PBP3) [µM]
CCN1CCN(C(=O)NC(C(=O)N[C@H]2Cc3cccc(C(=O)O)c3OB2O)c2c(F)cc(NC(=O)NC)cc2F)C(=O)C1=O (stereo partly drawn) [Example 213, (3R)-3-(2-(2,6-difluoro-4-(3-methylureido)phenyl)-2-(4-ethyl-2,3-dioxopiperazine-1-carboxamido)acetamido)-2-hydroxy-3,4-dihydro-2H-benzo[e][1,2]oxaborinine-8-carboxylic acid] | 2 to 4 (≈ 3.24 to 6.49 µM) | 32 to 64 (≈ 51.9 to 104 µM) | 2 to 4 (≈ 3.24 to 6.49 µM) | > 128 | > 128 | 32 to 64 (≈ 51.9 to 104 µM) | 32 to 64 (≈ 51.9 to 104 µM) | > 128 | < 30
NCCN1CCN(C(=O)N[C@H](C(=O)N[C@H]2Cc3cccc(C(=O)O)c3OB2O)c2c(F)cccc2Cl)C(=O)C1=O (single isomer, unassigned) [Example 206] | > 128 | > 128 | 32 to 64 (≈ 55.6 to 111 µM) | > 128 | > 128 | > 128 | > 128 | > 128 | > 500
O=C(O)c1cccc2c1OB(O)[C@@H](NC(=O)C(NC(=O)N1CCN(C3CNC3)C(=O)C1=O)c1c(F)cc(O)cc1F)C2 (stereo partly drawn) [Example 212, (3R)-3-(2-(4-(azetidin-3-yl)-2,3-dioxopiperazine-1-carboxamido)-2-(2,6-difluoro-4-hydroxyphenyl)acetamido)-2-hydroxy-3,4-dihydro-2H-benzo[e][1,2]oxaborinine-8-carboxylic acid] | 8 to 16 (≈ 13.6 to 27.2 µM) | 8 to 16 (≈ 13.6 to 27.2 µM) | 2 to 4 (≈ 3.41 to 6.81 µM) | > 128 | 32 to 64 (≈ 54.5 to 109 µM) | 8 to 16 (≈ 13.6 to 27.2 µM) | 8 to 16 (≈ 13.6 to 27.2 µM) | > 128 | < 30
CCN1CCN(C(=O)N[C@@H](C(=O)N[C@H]2Cc3ccc(F)c(C(=O)O)c3OB2O)c2c(Cl)cc(O)c(O)c2F)C(=O)C1=O (single isomer, unassigned) [Example 207] |  |  |  |  |  |  |  |  | < 30
O=C(NCCCN1CCN(C(=O)NC(C(=O)N[C@H]2Cc3ccc(F)c(C(=O)O)c3OB2O)c2ncc(O)cc2F)C(=O)C1=O)c1ccc(O)c(O)c1Cl (stereo partly drawn) [Example 3, (3R)-3-(2-(4-(3-(2-chloro-3,4-dihydroxybenzamido)propyl)-2,3-dioxopiperazine-1-carboxamido)-2-(3-fluoro-5-hydroxypyridin-2-yl)acetamido)-7-fluoro-2-hydroxy-3,4-dihydro-2H-benzo[e][1,2]oxaborinine-8-carboxylic acid] |  | 32 to 64 (≈ 42.1 to 84.1 µM) | 32 to 64 (≈ 42.1 to 84.1 µM) |  | > 128 | 32 to 64 (≈ 42.1 to 84.1 µM) | > 128 |  | < 30
O=C(NCCCN1CCN(C(=O)NC(C(=O)N[C@H]2Cc3cccc(C(=O)O)c3OB2O)c2ncc(O)cc2F)C(=O)C1=O)c1ccc(O)c(O)c1Cl (stereo partly drawn) [Example 1, (3R)-3-(2-(4-(3-(2-chloro-3,4-dihydroxybenzamido)propyl)-2,3-dioxopiperazine-1-carboxamido)-2-(3-fluoro-5-hydroxypyridin-2-yl)acetamido)-2-hydroxy-3,4-dihydro-2H-benzo[e][1,2]oxaborinine-8-carboxylic acid] |  | 8 to 16 (≈ 10.8 to 21.5 µM) | 8 to 16 (≈ 10.8 to 21.5 µM) |  | 32 to 64 (≈ 43.1 to 86.2 µM) | 32 to 64 (≈ 43.1 to 86.2 µM) | > 128 |  | < 30
CCN1CCN(C(=O)N[C@@H](C(=O)N[C@H]2Cc3ccc(F)c(C(=O)O)c3OB2O)c2ccc(O)c(O)c2)C(=O)C1=O [Example 211, (R)-3-((R)-2-(3,4-dihydroxyphenyl)-2-(4-ethyl-2,3-dioxopiperazine-1-carboxamido)acetamido)-7-fluoro-2-hydroxy-3,4-dihydro-2H-benzo[e][1,2]oxaborinine-8-carboxylic acid] |  |  |  |  |  |  |  |  | < 30
CCN1CCN(C(=O)N[C@@H](C(=O)N[C@H]2Cc3cc(Cl)c(F)c(C(=O)O)c3OB2O)c2c(F)cc(O)c(O)c2Cl)C(=O)C1=O [Example 191, (R)-6-chloro-3-((R)-2-(2-chloro-6-fluoro-3,4-dihydroxyphenyl)-2-(4-ethyl-2,3-dioxopiperazine-1-carboxamido)acetamido)-7-fluoro-2-hydroxy-3,4-dihydro-2H-benzo[e][1,2]oxaborinine-8-carboxylic acid] |  |  |  |  |  |  |  |  | < 30
Nc1nc(/C(=N/OC[C@H](NC(=O)c2ccc(O)c(O)c2Cl)C(=O)O)C(=O)N[C@H]2Cc3cccc(C(=O)O)c3OB2O)cs1 [Example 6, (R)-3-((Z)-2-(2-aminothiazol-4-yl)-2-(((S)-2-carboxy-2-(2-chloro-3,4-dihydroxybenzamido)ethoxy)imino)acetamido)-2-hydroxy-3,4-dihydro-2H-benzo[e][1,2]oxaborinine-8-carboxylic acid] |  |  |  |  |  |  |  |  | 30 to 500
CS(=O)(=O)N1CCN(C(=O)NC(C(=O)N[C@H]2Cc3ccc(F)c(C(=O)O)c3OB2O)c2c(Cl)cc(O)c(O)c2F)C1=O (stereo partly drawn) [Example 208, (3R)-3-(2-(6-chloro-2-fluoro-3,4-dihydroxyphenyl)-2-(3-(methylsulfonyl)-2-oxoimidazolidine-1-carboxamido)acetamido)-7-fluoro-2-hydroxy-3,4-dihydro-2H-benzo[e][1,2]oxaborinine-8-carboxylic acid] |  |  |  |  |  |  |  |  | < 30
O=C(NCCN1CCN(C(=O)NC(C(=O)N[C@H]2Cc3ccc(F)c(C(=O)O)c3OB2O)c2ncc(O)cc2F)C(=O)C1=O)c1c(F)cc(O)c(O)c1Cl (stereo partly drawn) [Example 5, (3R)-3-(2-(4-(2-(2-chloro-6-fluoro-3,4-dihydroxybenzamido)ethyl)-2,3-dioxopiperazine-1-carboxamido)-2-(3-fluoro-5-hydroxypyridin-2-yl)acetamido)-7-fluoro-2-hydroxy-3,4-dihydro-2H-benzo[e][1,2]oxaborinine-8-carboxylic acid] |  |  |  |  |  |  |  |  | < 30
Nc1nc(C(NC(=O)N2CCN(CCNC(=O)c3ccc(O)c(O)c3Cl)C(=O)C2=O)C(=O)N[C@H]2Cc3ccc(F)c(C(=O)O)c3OB2O)c(F)s1 (stereo partly drawn) [Example 4, (3R)-3-(2-(2-amino-5-fluorothiazol-4-yl)-2-(4-(2-(2-chloro-3,4-dihydroxybenzamido)ethyl)-2,3-dioxopiperazine-1-carboxamido)acetamido)-7-fluoro-2-hydroxy-3,4-dihydro-2H-benzo[e][1,2]oxaborinine-8-carboxylic acid] |  |  |  |  |  |  |  |  | < 30
CCN1CCN(C(=O)NC(C(=O)N[C@H]2Cc3ccc(F)c(C(=O)O)c3OB2O)c2ncc(C(=O)O)cc2F)C(=O)C1=O (stereo partly drawn) [Example 33, 6-(2-(((R)-8-carboxy-7-fluoro-2-hydroxy-3,4-dihydro-2H-benzo[e][1,2]oxaborinin-3-yl)amino)-1-(4-ethyl-2,3-dioxopiperazine-1-carboxamido)-2-oxoethyl)-5-fluoronicotinic acid] | 32 to 64 (≈ 54.3 to 109 µM) | > 128 | > 128 | > 128 | > 128 | > 128 | > 128 | > 128 | 
C[C@H]1CN(CCNC(=O)c2ccc(O)c(O)c2Cl)C(=O)C(=O)N1C(=O)NC(C(=O)N[C@H]1Cc2cccc(C(=O)O)c2OB1O)c1ncc(O)cc1F (stereo partly drawn) [Example 2, (3R)-3-(2-((S)-4-(2-(2-chloro-3,4-dihydroxybenzamido)ethyl)-6-methyl-2,3-dioxopiperazine-1-carboxamido)-2-(3-fluoro-5-hydroxypyridin-2-yl)acetamido)-2-hydroxy-3,4-dihydro-2H-benzo[e][1,2]oxaborinine-8-carboxylic acid] |  | 2 to 4 (≈ 2.69 to 5.38 µM) | 0.5 to 1 (≈ 0.673 to 1.35 µM) |  | 8 to 16 (≈ 10.8 to 21.5 µM) | 2 to 4 (≈ 2.69 to 5.38 µM) | 8 to 16 (≈ 10.8 to 21.5 µM) |  | < 30
CCN1CCN(C(=O)N[C@H](C(=O)N[C@H]2Cc3ccc(F)c(C(=O)O)c3OB2O)c2ccc(O)c(O)c2)C(=O)C1=O [Example 210, (R)-3-((S)-2-(3,4-dihydroxyphenyl)-2-(4-ethyl-2,3-dioxopiperazine-1-carboxamido)acetamido)-7-fluoro-2-hydroxy-3,4-dihydro-2H-benzo[e][1,2]oxaborinine-8-carboxylic acid] |  |  |  |  |  |  |  |  | > 500
NCCCN1CCN(C(=O)N[C@@H](C(=O)N[C@H]2Cc3cc(Cl)c(F)c(C(=O)O)c3OB2O)c2c(F)cc(O)c(O)c2Cl)C(=O)C1=O [Example 190, (R)-3-((R)-2-(4-(3-aminopropyl)-2,3-dioxopiperazine-1-carboxamido)-2-(2-chloro-6-fluoro-3,4-dihydroxyphenyl)acetamido)-6-chloro-7-fluoro-2-hydroxy-3,4-dihydro-2H-benzo[e][1,2]oxaborinine-8-carboxylic acid] |  |  |  |  |  |  |  |  | < 30

Source: patent US20230114728A1 (Venatorx Pharmaceuticals, Inc., priority 2019, published 2023)
